In patent publication US4060526A, “1-Heterocyclic alkyl-1,2,3,4-tetrahydroquinazolinones and analgesic intermediates thereof” (priority 1976, dated 1977):
Read-outs that look alike come from different tables or passages of the source.

Tests used:
[1] = test system: heat stimulus; assay: mouse hot plate test (Eddy and Leimbach, modified); details: Mus musculus, read-out: Hot Plate ED50
[2] = phenylbenzoquinone writhing test, mouse; type: in vivo; details: mouse, in vivo, po, Mouse p.o.
Method: (§5) In addition to the hot plate method, the writhing test described by Sigmund et al., Soc. Exp. Biol. and Med. 95:729 (1957) has been applied in both rats and mice as further indication of analgesics. […] The stimulus of intraperitoneal injection of phenylbenzoquinone results in a writhing syndrome characterized by periodic twisting and stretching of the body with extension of the hind legs. […] The dose of compound protecting 50% of the animals is determined and expressed as the ED50. Ten animals are used at each dose level.

[3] = test system: phenylbenzoquinone writhing; assay: phenylbenzoquinone writhing test, mouse; type: in vivo; details: po; Mouse p.o.
Method: as §5

[4] = in vivo; details: mouse
[5] = in vivo
[6] = test system: oxymorphone induced mydriasis; assay: antagonism of oxymorphone induced mydriasis; type: in vivo, mice; details: mice; words
Method: (§1) The compounds of this invention were tested for their ability to antagonize narcotic analgesics by two different tests. […] Another test used for narcotic antagonist activity was published by Harris & Pearson. This test is modification of the D'Amour & Smith method.

[7] = acute toxicity, rat; details: in vivo, sc; Rat s.c.; preliminary result
Method: (§2) Compounds were administered in 2% clearjel as a suspension except in
(§3) Toxicities have only been run with male animals to date.

[8] = acute toxicity, cat; details: in vivo, ip; Cat i.p.; preliminary result (740-222)
Method: as §2, §3

[9] = test system: NARCOTIC ANTAGONISM; assay: narcotic antagonism (Table IV); type: in vivo; details: I.P.
Method: as §1
(§4) In the original method the time required for rats to flick their tails following application of a heat stimulus is taken as a measure of analgesic potency.

[10] = in vivo; remark: listed apart in the source
[11] = test system: sciatic nerve; assay: local anesthesia, sciatic block; type: in vivo, mice; details: Pos. = blockade took place and leg and foot returned to normal after a time
Source text: An effective local anesthetic causes a blockade of the nerves of the lower leg and foot causing the animal, when permitted to walk, to do so flatfooted, rather than its normal habit, up on its toes. Alternatively an effective local anesthetic, by the sciatic block method, can cause the leg to be dragged by the animal when walking so long as effective sciatic block persists. Toxic agents may effect the same apparent results, but the blockade effected by toxic agents is irreversible. However, in contrast to toxic agents, an effective local anesthetic permits recovery of the use of the leg and foot after a period of time.
The mice used in the sciatic block test were placed in a holder with their hind limbs extended. A quantity of the test compound (e.g. 0.05 ml) was injected into the area surrounding the sciatic nerve at the juncture of the two major leg muscles. Effective local anesthetic activity is indicated in Table IV ("Pos." --meaning that the blockade did take place and that the leg and foot returned to normal after a time.)

[12] = test system: MOUSE TAIL STIMULATION; assay: mouse tail stimulation analgesia; details: for ED50: Mus musculus, sc, read-out: MOUSE TAIL STIMULATION ED50
[13] = test system: heat stimulus; assay: D'Amour Smith Rat Tail Flick; type: in vivo; details: Sub. cut.
Source text: as §4

Structure (SMILES)	NARCOTIC ANTAGONISM [9]	LD50 ([10]; ip) [mg/kg]	NOAEL ([10]; ip) [mg/kg]	LOCAL ANESTHESIA SCIATIC BLOCK [11]	also measured
COc1ccc2c3c1O[C@H]1[C@@H](O)C=C[C@H]4[C@@H](C2)N(C)CC[C@@]341 [Codeine, reference compound]					ED50 ([1]; ip): 12 mg/kg; ED50 ([1]; po): 20 mg/kg; selectivity ratio ([2]; HNSD = highest dose without gross symptoms, read-out: HNSD./ED50 Writhing): 5.9; selectivity ratio ([2]; read-out: LD50 /ED50 Writhing): 32; ED50 [3]: 17 mg/kg; selectivity ratio ([4]; ip, HNSD./ED50 H.P., Mouse i.p., HNSD = highest dose without gross symptoms): 2.6; selectivity ratio ([4]; ip, LD50 /ED50 H.P., Mouse i.p.): 8.7; selectivity ratio ([4]; po, HNSD./ED50 H.P., Mouse p.o., HNSD = highest dose without gross symptoms): 5; selectivity ratio ([4]; po, LD50 /ED50 H.P., Mouse p.o.): 27; LD50 at 48 h ([5]; mouse, ip): 104 mg/kg; LD50 at 48 h ([5]; mouse, po): 540 mg/kg; effect of narcotic agents on pupil size [6]: no change or an increase in the pupil size
NC(=O)c1ccccc1NCCN1CCN(c2ccccc2)CC1 [Example 730-372A, 2-[2-(4-[1-Phenyl]piperazinyl)ethylamino]-benzamide]					LD50 at 48 h [7]: > 1000 mg/kg; LD50 at 48 h [8]: > 1000 mg/kg; LD50 at 48 h ([5]; ip, Mouse i.p., read-out: LD50 (48 hr)): > 1000 mg/kg; LD50 at 48 h ([5]; iv, Mouse i.v., solution (5mg/ml) in distilled water, read-out: LD50 (48 hr)): 50 mg/kg; LD50 at 48 h ([5]; po, Mouse p.o., read-out: LD50 (48 hr)): > 1000 mg/kg; LD50 at 48 h ([5]; sc, Mouse s.c., read-out: LD50 (48 hr)): > 1000 mg/kg
Cl.Cl.Cl.NC(=O)c1ccccc1NCCN1CCN(Cc2ccccc2)CC1 [Example XX, 2-(2-[4-Benzyl-1-piperazinyl]ethylamino)benzamide trihydrochloride]	Positive	100	10		
CS(=O)(=O)O.O=C1NC(c2ccccc2)N(CCN2CCC(O)(c3ccccc3)CC2)c2ccccc21 (stereo not shown) [Example XXVI, 1-[2-(4-Hydroxy-4-phenylpiperidino)ethyl]-2-phenyl-1,2,3,4-tetrahydro-4-quinazolinone Methanesulfonate]	Negative	200	3	Positive	
NC(=O)c1ccccc1N(CCN1CCC(O)(c2ccccc2)CC1)Cc1ccccc1 [Example XXVII (Step 4 Title Compound), 2-[Benzyl-(2-[4-hydroxy-4-phenylpiperidyl]ethyl)amino]benzamide]		60	10		
CCC(=O)OC1(c2ccccc2)CCN(CCN(Cc2ccccc2)c2ccccc2C(N)=O)CC1 [Example XXVII (Step 5 Title Compound)]	Negative	100	3		
CCC(=O)OC1(c2ccccc2)CCN(CCNc2ccccc2C(N)=O)CC1 [Example XXVII, 2-[2-(4-propionoxy-4-phenylpiperidyl)ethylamino]benzamide]		60	0.1		ED50 [12]: 0.03 mg/kg
CCOC(=O)C1(c2ccccc2)CCN(C)CC1 [Merperidine, reference compound]	Negative	130	30	Positive	ED50 [12]: 1.8 mg/kg
CN1CC[C@]23c4c5ccc(O)c4O[C@H]2[C@@H](O)C=C[C@H]3[C@H]1C5 [Morphine, reference compound]	Negative				Rat Tail Flick ED50 [13]: 15 mg/kg; MOUSE TAIL STIMULATION ED50 ([12]; S.C.): 1.5 mg/kg
CC(C)=CCN1CCC2(C)c3cc(O)ccc3CC1C2C (stereo not shown) [Pentazocine, reference compound]	Positive	140	30	Positive	
COc1ccc(N2CCN(CCNc3ccccc3C(N)=O)CC2)cc1 [VII, 2-[2-(1-[p-Methoxyphenyl]-4-piperazinyl)ethylamino] benzamide]	Positive	300	3	Positive	
COC(=O)c1ccccc1NCCN1CCN(c2ccccc2)CC1 [XII, Methyl 2-[2-(1-phenyl-4-piperazinyl)ethylamino]benzoate]	Negative	300	300	Positive	
CC(CNc1ccccc1C(N)=O)N1CCN(c2ccccc2)CC1.Cl (stereo not shown) [XIV, 2-[2-(4-phenyl-1-piperazinyl)propylamino]benzamide hydrochloride]	Positive	300	10	Positive	
NC(=O)c1cc([N+](=O)[O-])ccc1NCCN1CCN(c2ccccc2)CC1 [XIX, 5-Nitro-2-(2-[4-phenyl-1-piperazinyl]ethylamino)benzamide]	Negative				LD50 ([10]; po): 300 mg/kg
CNC(=O)c1ccccc1NCCN1CCN(c2ccccc2)CC1 [XV, 2-(2-[4-phenyl-1-piperazinyl]ethylamino)-N-methylbenzamide]	Positive	200	3	Positive	
Cl.O=C(c1ccccc1NCCN1CCN(c2ccccc2)CC1)N1CCOCC1 [XVI, N-(2-[2-(1-phenyl-4-piperazinyl)ethylamino]benzoyl) morpholine hydrochloride]	Positive	250	10		ED50 [12]: 30 mg/kg
Cl.NC(=O)c1ccccc1NCCN1CCN(CCc2ccccc2)CC1 [XVII, 2-[2-(4-phenethyl-1-piperazinyl)ethylamino]benzamide hydrochloride]	Negative	70	10	Positive	
COc1ccc(NCCN2CCN(c3ccccc3)CC2)c(C(N)=O)c1 [XVIII, 5-Methoxy-2-(2[4-phenyl-1-piperazinyl]ethylamino)benzamide]	Positive	300	1		
Cl.NC(=O)c1cc(N)ccc1NCCN1CCN(c2ccccc2)CC1 [XXI, 5-Amino-2-(2-[4-phenyl-1-piperazinyl]-ethylamino)benzamide hydrochloride]	Positive	200	10	Positive	
O=C(Nc1ccccc1)c1ccccc1NCCN1CCN(c2ccccc2)CC1 [XXII, 2-[2-(1-Phenyl-4-piperazinyl)ethylamino]-N-phenylbenzamide]	Positive	300	0.3	Negative	
CCOc1ccc(NCCN2CCN(c3ccccc3)CC2)c(C(N)=O)c1 [XXIV, 5-Ethoxy-2-(2-[4-phenyl-1-piperazinyl]ethylamino)benzamide]	Negative	300	30		
CCC(=O)OC1(c2ccccc2)CCN(CCNc2ccccc2C(=O)NC)CC1 [XXIX, 2-[2-(4-Propionoxy-4-phenylpiperidyl)ethylamino]-N-methyl-benzamide]					LD50 ([10]; po): 16 mg/kg
CCC(=O)OC1(c2ccccc2)CCN(CCN(Cc2ccccc2)c2ccccc2C(=O)NC)CC1 [XXVIII, 2-[Benzyl-(2-[4-propionoxy-4-phenylpiperidyl]ethyl)amino]-N-methyl-benzamide]					LD50 ([10]; po): 250 mg/kg
NC(=O)c1ccccc1NCCN1CCC(c2ccccc2)CC1 [XXX, 2-[2-(4-phenyl-1-piperidyl)ethylamino]benzamide]	Positive	200	10	Positive	
NC(=O)c1ccccc1NCCN1CCCCC1 [XXXI, 2-[N-β-(1-Piperidinoethyl)amino]benzamide]	Positive	40	10		
CC(CN1CCN(c2ccccc2)CC1)Nc1ccccc1C(N)=O (stereo not shown) [XXXII, 2-[1-methyl-2-(4-phenyl-1-piperazinyl)ethylamino]benzamide]	Negative	300	3		
